# Measured values as given in patent US7252953B2, “Method of detecting and preventing Alzheimer's disease, particularly at prodromal and early stages” (United States of America Department of Veterans Affairs, priority 2002, dated 2007).
# “Also recorded” adds a separate entry of the source.
# How the values were obtained:
# [1] = tested on: fibrillar actin (F-actin); assay: Phalloidin staining of F-actin in microglial cells; format: cell-based, murine
# Experimental: Microglial cells were seeded onto poly-L-lysine-coated 8-chamber slides at a density of 1×10^4/well. After various treatments, cells were immediately fixed with pre-chilled (4° C.) 5% acetic acid in methanol for 45 min at 4° C., followed by washing with PBS. The fixed cells were blocked and double-stained with phalloidin-FITC (1:1,000) and anti-GRK5 (1:500) or GRK2 (1:500). Secondary antibody-Cy3 conjugates (1:500) staining, washing, mounting and confocal microscopic visualization were performed routinely as previously described (Reference 29).
# Microglial-mediated inflammation is an important pathological component of AD (Reference 28). […] Thrombin, a serine protease is known to activate protease-activated GPCRs, (PARs) such as PAR1 (Reference 29) and PAR4 in microglia. The sAβ preparation used in this study has been previously characterized as composed principally of conformational intermediates by CD-spectrum (Reference 30) and a mixture of monomeric and oligomeric Aβ by Western blotting.
# PARs-GRKs binding = assay: Inhibition of GRK-PAR binding by sAβ-pretreatment in microglial cells (IP and WB, all examined PARs and GRKs); format: cell-based, murine; conditions: sAβ1-42 500 nM pretreatment 5 min, then 100 nM thrombin 30 seconds
# Experimental: Primary microglial cultures were prepared from neonatal mouse (C57BL6) brains as previously described (Reference 29) and maintained in Delbecco's modified Eagle's medium with F-12 nutrient mixture (DMEM/F12) containing 10% fetal bovine sera (FBS) and antibiotics. N9 clonal murine microglial cell cultures were maintained in Iscoves modified Delbecco's medium (IMDM) containing 5% heat-inactivated FBS, 2 mM L-glutamine, 50 μM 2-mercaptoethanol and antibiotics. Treatment of both primary and N9 microglial cells were performed under serum-free conditions. Freshly solublized Aβ (BioSource, Camarillo, Calif.) peptides were prepared and characterized as previously described (References 30 and 44) and were used in all in vitro experiments. […]
# Cultured cells were lysed in pre-chilled 2×IP buffer I (Tris, 20 mM, pH 7.4; NaCl, 300 mM; EDTA, 2 mM; 2 mM EGTA, pH 8.0; 0.4 mM sodium ortho-vanadate, 2% Triton X-100; 1% NP-40; 0.4 mM PMSF) supplemented both with phosphatase and protease inhibitor cocktails. After centrifugation, the supernatants were collected and total protein concentrations were determined by the bicinchoninic acid assay (BCA). […] Both antibodies to GRK2 and GRK5 (Santa Cruz) were diluted 1:500 for WB, other routine procedures, WB for total and phospho-p44/42 MAPK, and semi-quantitative analysis of protein band density were performed as previously described (Reference 29). […]
# [Ca^2+]i = Ca2+ imaging (Fluo-4) in microglial cells; format: cell-based, murine; conditions: sAβ-pretreated cells (500 nM sAβ1-42), then 100 nM thrombin
# Experimental: (§1) Primary microglial cultures were prepared from neonatal mouse (C57BL6) brains as previously described (Reference 29) and maintained in Delbecco's modified Eagle's medium with F-12 nutrient mixture (DMEM/F12) containing 10% fetal bovine sera (FBS) and antibiotics. N9 clonal murine microglial cell cultures were maintained in Iscoves modified Delbecco's medium (IMDM) containing 5% heat-inactivated FBS, 2 mM L-glutamine, 50 μM 2-mercaptoethanol and antibiotics. Treatment of both primary and N9 microglial cells were performed under serum-free conditions. Freshly solublized Aβ (BioSource, Camarillo, Calif.) peptides were prepared and characterized as previously described (References 30 and 44) and were used in all in vitro experiments. Unless specified, cells were always pretreated with sAβ for 5 min and then followed by challenge with α-thrombin (100 nM or as indicated), glutamate (2 mM) or LPS (5 ng/ml).
# We measured [Ca^2+]i in microglial cells using Fluo-4 (2 μM) with the aid of a Nikon BioRadiance triple laser scanning confocal microscope. Image collection, quantification and data analysis were performed as previously described (Reference 29).
# (§2) In previous studies, we found thrombin signaling via PARs in microglial cells involving [Ca^2+]i increase and transient activation of both p38 and p44/42 mitogen-activated protein kinases (MAPKs) (Reference 29). To understand potential consequences of GRK dysfunction induced by sAβ, for these studies we also assessed changes in thrombin signaling in sAβ-pretreated microglial cells.
# (§3) FIG. 5A, N9 microglial cells were pre-treated with 500 nM sAβ1-42 (arrow “1”) followed by 100 nM thrombin treatment (arrow “2”). Changes in [Ca^2+]i were measured as previously described (Reference 29) from three separate experiments. […] For both FIGS. 5B and 5C, lane M=Marker, 1=Control (0 min), 2=Control (25 min), 3=Aβ1-42 (25 min), 4=Thrombin (20 min), 5=Aβ1-42+thrombin (20 min post-Aβ), 6=Control (24 h), 7=Aβ1-42 (24 h), 8=Thrombin (24 h) and 9=Aβ1-42+thrombin (24 h post-Aβ). “P” and “T” indicate phosphorylated and total p38 or p44/42 MAPKs, respectively.
# p44/42 MAPK = p44/42 MAPK phosphorylation in microglial cells (WB); format: cell-based, murine
# Experimental: as §1
# (§4) Cultured cells were lysed in pre-chilled 2×IP buffer I (Tris, 20 mM, pH 7.4; NaCl, 300 mM; EDTA, 2 mM; 2 mM EGTA, pH 8.0; 0.4 mM sodium ortho-vanadate, 2% Triton X-100; 1% NP-40; 0.4 mM PMSF) supplemented both with phosphatase and protease inhibitor cocktails. After centrifugation, the supernatants were collected and total protein concentrations were determined by the bicinchoninic acid assay (BCA). Equal amounts (250 μg) of cell lysates from each group were mixed with 20 μl (˜5 μg) of either PAR1 or PAR4 antibodies, and brought to a total volume of 1 ml in 1×IP buffer. Following a 1 hour incubation at 4° C., appropriate secondary antibody-agarose conjugates were added followed by incubation (30 min with agitation), centrifugation and sufficient washes. The pellets were resuspended in 30 μl of electrophoresis sample buffer and boiled for 5 min. The supernatants were directly used for polyacrylamide sodium dodecyl sulfate gel electrophoresis (SDS-PAGE) and WB analysis. To prepare subcellular fractions of brain samples, we homogenized fresh or fresh-frozen tissues in Tris buffered saline solution (Tris, 10 mM, pH 7.4; NaCl, 150 mM; EDTA, 1 mM; 1 mM EGTA, pH 8.0; 0.2 mM sodium ortho-vanadate) supplemented with protease inhibitor cocktails. After centrifugation (12,000 g at 4° C. for 15 min), the supernatants were collected as cytosolic fractions. The pellets were resuspended in 1×IP buffer containing protease inhibitor cocktail. Following brief sonication and centrifugation (12,000 g at 4° C. for 15 min), the supernatants were collected as membrane fractions. Both antibodies to GRK2 and GRK5 (Santa Cruz) were diluted 1:500 for WB, other routine procedures, WB for total and phospho-p44/42 MAPK, and semi-quantitative analysis of protein band density were performed as previously described (Reference 29).
# as §2, §3
# p38 MAPK = p38 MAPK phosphorylation in microglial cells (WB); format: cell-based, murine
# Experimental: as §1, §4, §2, §3
# TNF-α [2] = assay: TNF-α release in primary mouse brain microglial cultures; format: cell-based
# Experimental: as §1
# (§5) TNF-α production in microglial culture media was measured and standardized as previously described (Reference 29).
# (§6) Given our results that sAβ disrupts GRK function and inhibits GPCR desensitization in microglia, we next investigated whether such signaling dysregulation might lead to cellular functional changes in microglia. Both primary and N9 clonal murine microglial cultures were used and TNF-α secretion in culture media was measured as an outcome. […] Moreover, the potentiation effect of sAβ on thrombin and glutamate-induced microglial activation was dose-dependent, with a minimal effective concentration (ECmin) of 20 nM and a maximal EC (ECmax) of 500 nM. Furthermore, the enhancement effect was not observed if sAβ was given after (10 min) thrombin or glutamate treatments. […] Together with the evidence that sAβ inhibits GRK-GPCR interactions and causes prolongation of GPCR signaling, we conclude that sAβ, by disrupting GRK function, alters microglial reactivity to specific GPCR activators.
# FIG. 6A, pretreatment with sAβ1-42 potentiated (p<0.01) TNF-α release induced by increasing doses of thrombin (Thr) as indicated from primary mouse brain microglial cultures. n=4. […]
# TNF-α [3] = assay: TNF-α release in N9 clonal murine microglial cells; format: cell-based
# Experimental: as §1, §5, §6
# FIG. 6A, pretreatment with sAβ1-42 potentiated (p<0.01) TNF-α release induced by increasing doses of thrombin (Thr) as indicated from primary mouse brain microglial cultures. n=4. […] The ECmin and ECmax for sAβ's potentiation are approximately 20 nM and 500 nM, respectively. n=6.
# [4] = sAβ pretreatment (5 min) followed by thrombin, within 20 min post-Aβ treatment
# [5] = sAβ-pretreatment followed by thrombin, 24 h
# [6] = substance alone, within 20 min post-Aβ treatment
# [7] = 5 min pretreatment, N9 cells, FIG. 6B
substance,measurement,setting,value
"sAβ: Soluble β-amyloid, chain length not stated at the place; sAβ1-42 (500 nM) in Examples 3-6",formation of fibrillar actin (F-actin),[1],caused rapid formation of fibrillar actin (F-actin)
same,binding of all examined PARs to GRKs after thrombin in sAβ-pretreated cells,PARs-GRKs binding,essentially abolished; also recorded: almost completely abolished
same,"[Ca^2+]i reached by the subsequent slow climb, without decrease",[Ca^2+]i,greater than 450 nM
same,p44/42 MAPK phosphorylation,p44/42 MAPK; [4],increased phosphorylation
same,p44/42 MAPK phosphorylation,p44/42 MAPK; [5],remained elevated; also recorded: persistent phosphorylation
same,p44/42 MAPK phosphorylation,"p44/42 MAPK; substance alone, 24 h",returned to basal levels
same,p44/42 MAPK phosphorylation,p44/42 MAPK; [6],increased phosphorylation
same,p38 MAPK phosphorylation,p38 MAPK; [4],increased phosphorylation
same,p38 MAPK phosphorylation,p38 MAPK; [5],remained elevated; also recorded: persistent phosphorylation
same,p38 MAPK phosphorylation,"p38 MAPK; substance alone, 24 h",returned to basal levels
same,p38 MAPK phosphorylation,p38 MAPK; [6],increased phosphorylation
same,effect of sAβ pretreatment on thrombin-induced TNF-α release,"TNF-α [2]; 5 min pretreatment, FIG. 6A",significantly potentiated
same,TNF-α release induced by sAβ alone,TNF-α [2]; nM concentrations,insufficient to induce significant TNF-α release
same,effect of sAβ pretreatment on LPS-induced TNF-α release,TNF-α [3]; [7],not
same,effect of sAβ pretreatment on glutamate-induced TNF-α release,TNF-α [3]; [7],significantly potentiated
same,effect of sAβ pretreatment on thrombin-induced TNF-α release,TNF-α [3]; [7],significantly potentiated
same,TNF-α release induced by sAβ alone,"TNF-α [3]; nM concentrations, N9 clonal microglial cultures",insufficient to induce significant TNF-α release; also recorded: not significant
same,maximal EC (ECmax) of sAβ's potentiation,TNF-α [3]; potentiation of thrombin- and glutamate-induced TNF-α release,500 nM
same,enhancement of TNF-α release when sAβ is given after thrombin or glutamate (post-treatment),TNF-α [3]; sAβ given 10 min after thrombin or glutamate,not observed
